ChEMBL document CHEMBL1138135, “L-dopa- and dopamine-(R)-alpha-lipoic acid conjugates as multifunctional codrugs with antioxidant properties” (J Med Chem, 2006)
≈ marks a conversion by molar mass, not a printed value. Calls of active or inactive are those of the source. No cut-off for these calls is given here.

Legend:
[1] = Aqueous solubility at pH 7.4; type: physicochemical; conditions: buffer
[2] = Solubility in water; type: physicochemical
[3] = Aqueous solubility at pH 1.3; type: physicochemical; conditions: buffer
[4] = Aqueous solubility at pH 5.0; type: physicochemical; conditions: buffer
[5] = Partition co-efficient, log P of the compound; type: physicochemical; conditions: octanol/water
Rattus norvegicus [6] = assay: Increase in plasmatic Glutathione peroxidase activity after 1 hr of administration of 160.54 mg/kg to Wistar rats; type: functional, organism-based; set-up: dose 160.54 mg/kg
Rattus norvegicus [7] = assay: Decrease in grooming behavior of Wistar rats after 1 hr of administration of 160.54 mg/kg; type: functional, organism-based; set-up: dose 160.54 mg/kg
Rattus norvegicus [8] = assay: Decrease in plasmatic superoxide dismutase activity after 1 hr and 3 hrs of administration of 160.54 mg/kg to Wistar rats; type: functional, organism-based; set-up: dose 160.54 mg/kg
Rattus norvegicus [9] = assay: Increase in plasmatic Glutathione peroxidase activity after 3 hrs of administration of 132.64 mg/kg to Wistar rats; type: functional, organism-based; set-up: dose 132.64 mg/kg
Rattus norvegicus [10] = assay: Decrease in plasmatic superoxide dismutase activity after 1 hr and 3 hrs of administration of 132.64 mg/kg to Wistar rats; type: functional, organism-based; set-up: dose 132.64 mg/kg
Rattus norvegicus [11] = assay: Increase in plasmatic Glutathione peroxidase activity after 1 hr of administration of 132.64 mg/kg to Wistar rats; type: functional, organism-based; set-up: dose 132.64 mg/kg
Rattus norvegicus [12] = assay: Decrease in grooming behavior of Wistar rats after 2 hrs of administration of 132.64 mg/kg; type: functional, organism-based; set-up: dose 132.64 mg/kg

solubility [1]	solubility [2]	solubility [3]	solubility [4]	logP [5]	Structure (SMILES)	Activity (Rattus norvegicus [6])	Activity (Rattus norvegicus [7])	Activity (Rattus norvegicus [8])	Activity (Rattus norvegicus [9])	Activity (Rattus norvegicus [10])	Activity (Rattus norvegicus [11])	Activity (Rattus norvegicus [12])
52 µg/mL (≈ 122 µM)	49 µg/mL (≈ 115 µM)	0.47 µg/mL (≈ 1.1 µM)	47 µg/mL (≈ 110 µM)	3.65	CC(=O)Oc1ccc(CCNC(=O)CCCC[C@@H]2CCSS2)cc1OC(C)=O	–	–	–	–	–	–	–
1.1 µg/mL (≈ 3.22 µM)	0.36 µg/mL (≈ 1.05 µM)	0.87 µg/mL (≈ 2.55 µM)	–	3.4	O=C(CCCC[C@@H]1CCSS1)NCCc1ccc(O)c(O)c1	–	–	–	–	–	–	–
38 µg/mL (≈ 78.6 µM)	233 µg/mL (≈ 482 µM)	39 µg/mL (≈ 80.6 µM)	24 µg/mL (≈ 49.6 µM)	2.77	COC(=O)[C@H](Cc1ccc(OC(C)=O)c(OC(C)=O)c1)NC(=O)CCCC[C@@H]1CCSS1	Active	Active	Active	–	–	–	–
13 µg/mL (≈ 32.5 µM)	12 µg/mL (≈ 30 µM)	–	11 µg/mL (≈ 27.5 µM)	2.16	COC(=O)[C@H](Cc1ccc(O)c(O)c1)NC(=O)CCCC[C@@H]1CCSS1	–	–	–	Active	Active	Active	Active
